{"source": "patent US20230056593A1", "about": "“ARGININE ASPARTATE-CONTAINING COMPOSITION FOR SUPPRESSING OLD PERSON SMELL” (HUMEDIX CO., LTD., priority 2020, published 2023)", "key": {"[1]": {"tested_on": "MMP-1", "experiment": "MMP-1 expression level in human skin fibroblasts (PCR)", "format": "cell-based", "description": "Human skin fibroblasts were cultured at a concentration of 1×10^4/well. The cells were treated with arginine aspartate for each concentration, and the MMP-1 expression level was measured using a PCR device to evaluate the ability of arginine aspartate to inhibit MMP-1. A group in which the cells were not treated with the sample was used as a control group (CON), and a group in which the cells were treated with 50 ppm of adenosine was used as a positive control group."}, "[2]": {"tested_on": "Procollagen", "experiment": "Collagen synthesis ability in human skin fibroblasts (Type I Procollagen C-Peptide EIA kit)", "format": "cell-based", "description": "Human skin fibroblasts were cultured at a concentration of 1×10^4/well. The cells were treated with each sample, and the amount of synthesized collagen was measured to evaluate the collagen synthesis ability. The cells were treated with adenosine at a concentration of 50 ppm as a positive control and arginine aspartate at a concentration of 10, 20 and 40 ppm. Collagen quantification was performed using a Type I Procollagen C-Peptide EIA kit (Takara, Japan). A group in which the cells were not treated with sample was used as a control group (CON)."}, "[3]": {"tested_on": "mushroom tyrosinase", "experiment": "Whitening effect: mushroom tyrosinase activity (absorbance at 490 nm)", "format": "biochemical", "conditions": "for Tyrosinase activity (% of control): 37° C. for 10 minutes, pH 6.8", "description": "After adding 200 μL of 0.1M phosphate buffer (pH 6.8) to the Eppen tube, 20 μL of each sample solution diluted at each concentration was added. Then, 20 μL of mushroom tyrosinase (2,000 units/μL) and 200 μL of 0.3% tyrosine were added in order, and then reacted at 37° C. for 10 minutes. After 200 μL of this solution was transferred to a 96-well plate, absorbance was measured at 490 nm using an ELISA reader. 100 ppm arbutin was used as a positive control."}, "[4]": {"tested_on": "TNF-α", "experiment": "Anti-inflammatory effect: TNF-α expression in UVB-stimulated HaCaT cells (RT-PCR)", "format": "cell-based", "conditions": "UVB stimulation", "description": "HaCaT cells were seeded in a 12-well plate by 1×10^5 cells/well, and after 24 hours, they were replaced with a basal medium and starvated for 6 hours. After that, the medium was replaced with the basal medium containing the sample and the cells were incubated for 24 hours. After removal of the medium, UVB stimulation was applied, and the basal medium was added and the cells were cultured for 24 hours. The medium was completely removed and the cells were washed twice with PBS. The cells were disrupted using TRIsure to recover RNA, and then RT-PCR was performed to amplify TNF-α. Electrophoresis was performed on an agarose gel and the expression rate was measured using the Gel Documentation system. 200 μM dexamethasone was used as a positive control."}, "[5]": {"experiment": "Removal of 2-nonenal by arginine aspartate (HPLC over time)", "conditions": "0.05 wt % 2-nonenal treated with 2.5 wt % arginine aspartate, room temperature, after 20 hours", "description": "The ability of the arginine aspartate of Formula (I) according to the present invention to remove 2-nonenal was evaluated.\n2-Nonenal was dissolved at a concentration of 0.1 wt % (1000 ppm) in 50 wt % ethanol aqueous solution containing 0.5 wt % Tween 80. Arginine aspartate was dissolved at a concentration of 5 wt % (50000 ppm) in a 50 wt % ethanol aqueous solution containing 0.5 wt % Tween 80.\nThe two solutions were mixed in a 1:1 ratio by weight to make a mixed solution. The mixed solution was left at room temperature and the change in the amount of 2-nonenal was analyzed by HPLC over time. That is, the change in the amount of 2-nonenal over time was analyzed by treating 0.05 wt % 2-nonenal with arginine aspartate at a concentration of 2.5 wt %.\nFurther, the 2-nonenal solution prepared above was diluted two-fold with a 50 wt % ethanol aqueous solution containing 0.5 wt % Tween 80 and the diluted solution was left at room temperature to analyze the change in the amount of 2-nonenal over time by HPLC. That is, the change in the amount of 2-nonenal over time was analyzed in a condition of 0.05 wt % of 2-nonenal untreated with arginine aspartate."}}, "data": [{"compound": "Nc1ncnc2c1ncn2[C@@H]1O[C@H](CO)[C@@H](O)[C@H]1O", "note": "[Adenosine, adenosine, reference compound]", "values": [{"measurement": "MMP-1 gene expression level (% of control)", "setting": "[1]; 50 ppm", "result": "73.9 % of control"}, {"measurement": "Type I procollagen C-peptide level (% of control)", "setting": "[2]; 50 ppm", "result": "142.2 % of control"}]}, {"compound": "OC[C@H]1O[C@@H](Oc2ccc(O)cc2)[C@H](O)[C@@H](O)[C@@H]1O", "note": "[Arbutin, arbutin, reference compound]", "values": [{"measurement": "Tyrosinase activity (% of control)", "setting": "[3]; 10 ppm", "result": "93.6 % of control"}, {"measurement": "Tyrosinase activity (% of control)", "setting": "[3]; 100 ppm", "result": "76.7 % of control"}]}, {"compound": "C[C@@H]1C[C@H]2[C@@H]3CCC4=CC(=O)C=C[C@]4(C)[C@@]3(F)[C@@H](O)C[C@]2(C)[C@@]1(O)C(=O)CO", "note": "[Dexamethasone, dexamethasone, reference compound]", "values": [{"measurement": "TNF-α gene expression level (% of control)", "setting": "[4]; 50 ppm (table)", "result": "66.9 % of control"}]}, {"compound": "arginine aspartate", "values": [{"measurement": "amount of 2-nonenal decreased", "setting": "[5]", "result": 74, "unit": "%"}, {"measurement": "amount of 2-nonenal left compared to the initial 100% by weight", "setting": "[5]", "result": 26, "unit": "% by weight"}, {"measurement": "MMP-1 gene expression level (% of control)", "setting": "[1]; 10 ppm", "result": "86.7 % of control"}, {"measurement": "MMP-1 gene expression level (% of control)", "setting": "[1]; 20 ppm", "result": "82.2 % of control"}, {"measurement": "MMP-1 gene expression level (% of control)", "setting": "[1]; 40 ppm", "result": "76.6 % of control"}, {"measurement": "inhibitory effect on MMP-1", "setting": "[1]; 40 ppm", "result": 23.4, "unit": "%"}, {"measurement": "collagen synthesis compared to the control group (CON)", "setting": "[2]; 10, 20 and 40 ppm", "result": "increase in collagen synthesis"}, {"measurement": "Type I procollagen C-peptide level (% of control)", "setting": "[2]; 10 ppm", "result": "123.6 % of control"}, {"measurement": "Type I procollagen C-peptide level (% of control)", "setting": "[2]; 20 ppm", "result": "133.0 % of control"}, {"measurement": "Type I procollagen C-peptide level (% of control)", "setting": "[2]; 40 ppm", "result": "136.8 % of control"}, {"measurement": "TNF-α gene expression level (% of control)", "setting": "[4]; 10 ppm", "result": "76.0 % of control"}, {"measurement": "TNF-α gene expression level (% of control)", "setting": "[4]; 20 ppm", "result": "72.9 % of control"}, {"measurement": "TNF-α gene expression level (% of control)", "setting": "[4]; 40 ppm", "result": "72.6 % of control"}, {"measurement": "decrease in TNF-α expression level", "setting": "[4]; 40 ppm", "result": 37.4, "unit": "%"}, {"measurement": "Tyrosinase activity (% of control)", "setting": "[3]; 10 ppm", "result": "72.5 % of control"}, {"measurement": "inhibition in tyrosinase activity", "setting": "[3]; 100 ppm", "result": 28.3, "unit": "%"}, {"measurement": "Tyrosinase activity (% of control)", "setting": "[3]; 100 ppm", "result": "71.7 % of control"}]}]}
